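Method: 48-hour compound exposure of cells in 96-well plates, five concentrations, linear interpolation of endpoints. GI50 = concentration required for 50% inhibition of growth. Definition used: TGI = concentration required for complete inhibition of growth.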
How the values were obtained:
Assay in all cases: DTP human tumour cell line panel, 48 h
[1] = tested on: TK-10 renal
[2] = tested on: SK-MEL-5 melanoma
[3] = tested on: UACC-257 melanoma
[4] = tested on: RPMI-8226 leukemia
[5] = tested on: SF-268 CNS
[6] = tested on: 786-0 renal
[7] = tested on: PC-3 prostate
[8] = tested on: SK-MEL-2 melanoma
[9] = tested on: NCI-H23 lung
[10] = tested on: OVCAR-8 ovarian
[11] = tested on: COLO 205 colon
[12] = tested on: U251 CNS
[13] = tested on: SK-OV-3 ovarian
[14] = tested on: LOX IMVI melanoma
[15] = tested on: SNB-75 CNS
[16] = tested on: IGROV1 ovarian
[17] = tested on: HT29 colon
[18] = tested on: ACHN renal
[19] = tested on: SR leukemia
[20] = tested on: HS 578T breast
[21] = tested on: UO-31 renal
[22] = tested on: SN12C renal
[23] = tested on: A549 NSCLC
[24] = tested on: HCT-15 colon
[25] = tested on: CAKI-1 renal
[26] = tested on: HCT-116 colon
[27] = tested on: MCF7 breast
[28] = tested on: NCI-H460 lung
[29] = tested on: SW-620 colon
[30] = tested on: OVCAR-3 ovarian
[31] = tested on: T-47D breast
[32] = tested on: UACC-62 melanoma
[33] = tested on: MDA-MB-231 breast
[34] = tested on: NCI-H226 lung
[35] = tested on: M14 melanoma
[36] = tested on: SF-539 CNS
[37] = tested on: HOP-92 NSCLC
[38] = tested on: CCRF-CEM leukemia
[39] = tested on: OVCAR-4 ovarian
[40] = tested on: HL-60(TB) leukemia
[41] = tested on: NCI-H522 lung
[42] = tested on: MDA-MB-435
[43] = tested on: RXF 393 renal
[44] = tested on: MOLT-4 leukemia
[45] = tested on: A498 renal
[46] = tested on: DU-145 prostate
[47] = tested on: BT-549 breast
[48] = tested on: SK-MEL-28 melanoma
[49] = tested on: HOP-62 NSCLC
[50] = tested on: NCI/ADR-RES ovarian
[51] = tested on: K-562 leukemia
[52] = tested on: HCC-2998 colon
[53] = tested on: KM12 colon
[54] = tested on: OVCAR-5 ovarian
[55] = tested on: SF-295 CNS
[56] = tested on: SNB-19 CNS
[57] = tested on: MALME-3M melanoma
[58] = tested on: EKVX NSCLC

O=c1[nH]cnc2c1nnn2[C@@H]1O[C@H](CO)[C@@H](O)[C@H]1O
GI50 [1]: 9.1 µM | TGI [1]: > 100 µM | GI50 [2]: 13.1 µM | TGI [2]: > 100 µM | GI50 [3]: 28.6 µM | TGI [3]: > 100 µM | GI50 [4]: 2.68 µM | TGI [4]: 25 µM | GI50 [5]: 28.9 µM | TGI [5]: > 100 µM | GI50 [6]: 3.83 µM | TGI [6]: > 100 µM | GI50 [7]: 2.77 µM | TGI [7]: > 100 µM | GI50 [8]: 5.4 µM | TGI [8]: 70 µM | GI50 [9]: 6.65 µM | TGI [9]: > 100 µM | GI50 [10]: 0.843 µM | TGI [10]: > 100 µM | GI50 [11]: 3.16 µM | TGI [11]: 20.6 µM | GI50 [12]: 25.8 µM | TGI [12]: > 100 µM | GI50 [13]: 0.868 µM | TGI [13]: > 100 µM | GI50 [14]: 2.14 µM | TGI [14]: > 100 µM | GI50 [15]: 3.22 µM | TGI [15]: > 100 µM | GI50 [16]: 2.57 µM | TGI [16]: 58.1 µM | GI50 [17]: 4.51 µM | TGI [17]: > 100 µM | GI50 [18]: 2.87 µM | TGI [18]: > 100 µM | GI50 [19]: 4.77 µM | TGI [19]: > 100 µM | GI50 [20]: 17.6 µM | TGI [20]: > 100 µM | GI50 [21]: 4.46 µM | TGI [21]: > 100 µM | GI50 [22]: 6.4 µM | TGI [22]: > 100 µM | GI50 [23]: 27.5 µM | TGI [23]: > 100 µM | GI50 [24]: 2.8 µM | TGI [24]: > 100 µM | GI50 [25]: 1.04 µM | TGI [25]: > 100 µM | GI50 [26]: 3.93 µM | TGI [26]: > 100 µM | GI50 [27]: 3.29 µM | TGI [27]: > 100 µM | GI50 [28]: 2.51 µM | TGI [28]: > 100 µM | GI50 [29]: 3.01 µM | TGI [29]: > 100 µM | GI50 [30]: 3.43 µM | TGI [30]: 33.8 µM | GI50 [31]: 4.53 µM | TGI [31]: > 100 µM | GI50 [32]: 5.75 µM | TGI [32]: 84.4 µM | GI50 [33]: 7.68 µM | TGI [33]: > 100 µM | GI50 [34]: 30.1 µM | TGI [34]: > 100 µM | GI50 [35]: 3.54 µM | TGI [35]: 41.9 µM | GI50 [36]: 7.66 µM | TGI [36]: > 100 µM | GI50 [37]: 2.33 µM | TGI [37]: > 100 µM | GI50 [38]: 1.34 µM | TGI [38]: > 100 µM | GI50 [39]: 1.89 µM | TGI [39]: > 100 µM | GI50 [40]: 1.56 µM | TGI [40]: 39.5 µM | GI50 [41]: 4.55 µM | TGI [41]: 63.4 µM | GI50 [42]: 6.26 µM | TGI [42]: > 100 µM | GI50 [43]: 4.31 µM | TGI [43]: > 100 µM | GI50 [44]: 1.96 µM | TGI [44]: 22.9 µM | GI50 [45]: 2.51 µM | TGI [45]: 57.4 µM | GI50 [46]: 1.72 µM | TGI [46]: > 100 µM | GI50 [47]: 9.81 µM | TGI [47]: > 100 µM | GI50 [48]: 31.5 µM | TGI [48]: > 100 µM | GI50 [49]: 9.22 µM | TGI [49]: > 100 µM | GI50 [50]: 2.27 µM | TGI [50]: > 100 µM | GI50 [51]: 3.7 µM | TGI [51]: > 100 µM | GI50 [52]: 4.33 µM | TGI [52]: > 100 µM | GI50 [53]: 7.85 µM | TGI [53]: > 100 µM | GI50 [54]: 19.3 µM | TGI [54]: > 100 µM

N#C/C(=C\c1ccc(Cl)cc1)n1nnc2cc(F)c(F)cc21
GI50 [2]: 1.62 µM | TGI [2]: 3.04 µM | GI50 [3]: 2.14 µM | TGI [3]: 5.58 µM | GI50 [4]: 1.39 µM | TGI [4]: 5.29 µM | GI50 [5]: 1.98 µM | TGI [5]: 4.45 µM | GI50 [6]: 1.69 µM | TGI [6]: 3.28 µM | GI50 [7]: 1.61 µM | TGI [7]: 3.53 µM | GI50 [8]: 2.03 µM | TGI [8]: 4.83 µM | GI50 [55]: 2.26 µM | TGI [55]: 5.53 µM | GI50 [9]: 1.73 µM | TGI [9]: 3.71 µM | GI50 [10]: 3.27 µM | TGI [10]: > 100 µM | GI50 [11]: 2.18 µM | TGI [11]: 4.83 µM | GI50 [12]: 1.62 µM | TGI [12]: 3.06 µM | GI50 [14]: 1.57 µM | TGI [14]: 2.99 µM | GI50 [15]: 1.51 µM | TGI [15]: 3.01 µM | GI50 [56]: 1.82 µM | TGI [56]: 3.78 µM | GI50 [16]: 1.97 µM | TGI [16]: 4.46 µM | GI50 [17]: 2.5 µM | TGI [17]: 5.61 µM | GI50 [18]: 1.64 µM | TGI [18]: 3.02 µM | GI50 [19]: 1.33 µM | TGI [19]: > 100 µM | GI50 [20]: 2.76 µM | TGI [20]: 8.49 µM | GI50 [21]: 1.55 µM | TGI [21]: 2.88 µM | GI50 [22]: 1.89 µM | TGI [22]: 4.02 µM | GI50 [23]: 2.7 µM | TGI [23]: 21.5 µM | GI50 [24]: 1.42 µM | TGI [24]: 3.55 µM | GI50 [25]: 1.7 µM | TGI [25]: 3.2 µM | GI50 [26]: 1.77 µM | TGI [26]: 3.45 µM | GI50 [27]: 1.53 µM | TGI [27]: 4.49 µM | GI50 [28]: 2.17 µM | TGI [28]: 4.86 µM | GI50 [29]: 1.72 µM | TGI [29]: 3.46 µM | GI50 [30]: 1.71 µM | TGI [30]: 3.22 µM | GI50 [31]: 1.31 µM | TGI [31]: 4.72 µM | GI50 [32]: 1.8 µM | TGI [32]: 3.96 µM | GI50 [33]: 1.85 µM | TGI [33]: 4.47 µM | GI50 [34]: 2.02 µM | TGI [34]: 4.54 µM | GI50 [35]: 1.9 µM | TGI [35]: 4.39 µM | GI50 [36]: 1.97 µM | TGI [36]: 3.77 µM | GI50 [37]: 1.07 µM | TGI [37]: 2.56 µM | GI50 [38]: 2.01 µM | TGI [38]: > 100 µM | GI50 [39]: 1.59 µM | TGI [39]: 3.48 µM | GI50 [40]: 2.36 µM | TGI [40]: 6.82 µM | GI50 [41]: 1.59 µM | TGI [41]: 3.85 µM | GI50 [57]: 2.06 µM | TGI [57]: 5.34 µM | GI50 [42]: 1.76 µM | TGI [42]: 4.42 µM | GI50 [58]: 1.67 µM | TGI [58]: 3.12 µM | GI50 [43]: 1.46 µM | TGI [43]: 3.11 µM | GI50 [44]: 2.65 µM | TGI [44]: > 100 µM | GI50 [45]: 1.28 µM | TGI [45]: 2.66 µM | GI50 [46]: 1.69 µM | TGI [46]: 3.11 µM | GI50 [47]: 1.74 µM | TGI [47]: 3.43 µM | GI50 [48]: 2.04 µM | TGI [48]: 4.38 µM | GI50 [49]: 2.29 µM | TGI [49]: 6.32 µM | GI50 [50]: 2.36 µM | TGI [50]: 7.7 µM | GI50 [51]: 2.19 µM | TGI [51]: > 100 µM | GI50 [52]: 1.74 µM | TGI [52]: 3.29 µM | GI50 [53]: 1.95 µM | TGI [53]: 4.29 µM | GI50 [54]: 1.9 µM | TGI [54]: 3.81 µM
